# From ChEMBL document CHEMBL4831531, “Mangostanin Derivatives as Novel and Orally Active Phosphodiesterase 4 Inhibitors for the Treatment of Idiopathic Pulmonary Fibrosis with Improved Safety” (J Med Chem, 2021)
# Calls of active or inactive are those of the source. The rule behind the calls is not given here.
# Tests used:
# [1] = molecular target: Dual specificity calcium/calmodulin-dependent 3',5'-cyclic nucleotide phosphodiesterase 1C (Homo sapiens, UniProt Q14123); test: Inhibition of PDE1C (147-531) (unknown origin) expressed in Escherichia coli BL21 assessed as using [3H]-cAMP as substrate measured for 15 mins by liquid scintillation counting analysis
# Sequence of Dual specificity calcium/calmodulin-dependent 3',5'-cyclic nucleotide phosphodiesterase 1C (Q14123 whole entry): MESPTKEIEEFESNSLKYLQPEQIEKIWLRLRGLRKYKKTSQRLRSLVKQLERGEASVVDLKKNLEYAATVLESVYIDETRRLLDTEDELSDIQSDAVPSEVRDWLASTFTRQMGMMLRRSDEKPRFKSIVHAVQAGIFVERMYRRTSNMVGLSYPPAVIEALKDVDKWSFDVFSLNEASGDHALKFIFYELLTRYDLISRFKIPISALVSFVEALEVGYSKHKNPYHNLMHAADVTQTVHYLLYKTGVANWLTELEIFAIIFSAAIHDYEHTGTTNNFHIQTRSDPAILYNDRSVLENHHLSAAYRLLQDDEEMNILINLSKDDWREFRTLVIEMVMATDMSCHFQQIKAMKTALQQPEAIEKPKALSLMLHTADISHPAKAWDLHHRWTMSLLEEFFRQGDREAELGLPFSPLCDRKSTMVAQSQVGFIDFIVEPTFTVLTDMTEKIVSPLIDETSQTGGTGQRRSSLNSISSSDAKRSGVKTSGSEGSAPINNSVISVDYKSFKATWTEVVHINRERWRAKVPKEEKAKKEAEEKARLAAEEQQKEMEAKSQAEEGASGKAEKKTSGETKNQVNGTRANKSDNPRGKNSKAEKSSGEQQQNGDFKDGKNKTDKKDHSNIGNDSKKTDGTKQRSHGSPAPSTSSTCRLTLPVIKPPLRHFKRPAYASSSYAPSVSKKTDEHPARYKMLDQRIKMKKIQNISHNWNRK
# [2] = Toxicity in dog assessed as emesis at 10 mg/kg, po; format: organism-based, Canis lupus familiaris; conditions: in vivo
# Cytochrome P450 1A2 = molecular target: T1, Cytochrome P450 1A2 (Homo sapiens, UniProt P05177); test: Inhibition of human hepatic CYP1A2; format: ADME, tissue-based, Liver
# T1 sequence (P05177 whole entry): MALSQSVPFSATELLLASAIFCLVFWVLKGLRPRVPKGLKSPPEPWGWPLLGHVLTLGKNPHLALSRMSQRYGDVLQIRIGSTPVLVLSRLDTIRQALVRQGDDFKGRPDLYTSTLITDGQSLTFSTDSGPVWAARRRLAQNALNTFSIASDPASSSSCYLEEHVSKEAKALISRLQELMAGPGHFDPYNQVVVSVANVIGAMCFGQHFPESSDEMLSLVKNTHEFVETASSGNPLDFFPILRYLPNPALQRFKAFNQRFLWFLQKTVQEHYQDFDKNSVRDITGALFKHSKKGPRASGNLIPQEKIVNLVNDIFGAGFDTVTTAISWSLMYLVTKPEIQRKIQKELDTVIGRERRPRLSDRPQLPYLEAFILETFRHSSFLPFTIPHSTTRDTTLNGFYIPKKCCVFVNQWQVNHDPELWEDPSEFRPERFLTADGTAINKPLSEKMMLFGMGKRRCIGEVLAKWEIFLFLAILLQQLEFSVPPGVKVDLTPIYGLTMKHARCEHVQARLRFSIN
# Rattus norvegicus [3] = test: Anti-idiopathic pulmonary fibrotic activity in bleomycin-induced Sprague-Dawley rat model assessed as reversal of mid-expiratory flow at 10 mg/kg, po treated for 28 consecutive days relative to control; format: functional, organism-based
# Cytochrome P450 2B6 = molecular target: T2, Cytochrome P450 2B6 (Homo sapiens, UniProt P20813); test: Inhibition of human hepatic CYP2B6; format: ADME, tissue-based, Liver
# T2 sequence (P20813 whole entry): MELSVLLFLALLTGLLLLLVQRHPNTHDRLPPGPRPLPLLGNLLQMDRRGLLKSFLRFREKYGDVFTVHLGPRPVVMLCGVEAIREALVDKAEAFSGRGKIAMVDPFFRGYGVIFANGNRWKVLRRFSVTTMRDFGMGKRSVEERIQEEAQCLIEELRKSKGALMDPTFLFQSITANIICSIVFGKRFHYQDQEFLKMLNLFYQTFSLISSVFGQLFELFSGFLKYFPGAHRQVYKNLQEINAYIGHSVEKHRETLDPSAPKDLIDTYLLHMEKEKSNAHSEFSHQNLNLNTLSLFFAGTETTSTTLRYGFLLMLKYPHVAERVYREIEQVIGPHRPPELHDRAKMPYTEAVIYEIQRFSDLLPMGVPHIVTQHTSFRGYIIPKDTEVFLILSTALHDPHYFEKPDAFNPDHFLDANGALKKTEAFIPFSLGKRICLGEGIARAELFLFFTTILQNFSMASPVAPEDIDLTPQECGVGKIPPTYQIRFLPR
# [4] = molecular target: High affinity cGMP-specific 3',5'-cyclic phosphodiesterase 9A (Homo sapiens, UniProt O76083); test: Inhibition of PDE9A2 (181-506) (unknown origin) expressed in Escherichia coli BL21 assessed as using […] as substrate measured for 15 mins by liquid scintillation counting analysis
# Sequence of High affinity cGMP-specific 3',5'-cyclic phosphodiesterase 9A (O76083 whole entry): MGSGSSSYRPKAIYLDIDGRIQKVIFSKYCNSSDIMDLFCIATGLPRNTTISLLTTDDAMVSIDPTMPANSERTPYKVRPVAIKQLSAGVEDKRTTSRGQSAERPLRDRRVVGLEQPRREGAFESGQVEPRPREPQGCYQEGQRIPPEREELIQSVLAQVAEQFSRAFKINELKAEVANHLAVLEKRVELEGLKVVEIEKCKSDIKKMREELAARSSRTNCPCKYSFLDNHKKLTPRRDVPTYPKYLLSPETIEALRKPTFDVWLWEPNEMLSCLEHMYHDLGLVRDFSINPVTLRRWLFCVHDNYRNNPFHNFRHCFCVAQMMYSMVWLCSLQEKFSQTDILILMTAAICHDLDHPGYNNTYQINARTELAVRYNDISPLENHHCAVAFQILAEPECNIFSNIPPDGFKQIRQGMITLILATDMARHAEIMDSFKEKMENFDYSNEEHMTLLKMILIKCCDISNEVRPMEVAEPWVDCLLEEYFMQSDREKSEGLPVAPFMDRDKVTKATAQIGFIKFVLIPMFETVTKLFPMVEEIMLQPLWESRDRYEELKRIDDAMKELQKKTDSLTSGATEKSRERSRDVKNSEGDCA
# Rattus norvegicus [5] = test: Anti-idiopathic pulmonary fibrotic activity in bleomycin-induced Sprague-Dawley rat model assessed as decrease in alpha-smooth muscle actin protein expression of lungs at 10 mg/kg, po treated for 28 consecutive days by Western blot analysis; format: functional, organism-based
# [6] = molecular target: High affinity cAMP-specific and IBMX-insensitive 3',5'-cyclic phosphodiesterase 8A (Homo sapiens, UniProt O60658); test: Inhibition of PDE8A1 (480-828) (unknown origin) expressed in Escherichia coli BL21 assessed as using [3H]-cAMP as substrate measured for 15 mins by liquid scintillation counting analysis
# Sequence of High affinity cAMP-specific and IBMX-insensitive 3',5'-cyclic phosphodiesterase 8A (O60658 whole entry): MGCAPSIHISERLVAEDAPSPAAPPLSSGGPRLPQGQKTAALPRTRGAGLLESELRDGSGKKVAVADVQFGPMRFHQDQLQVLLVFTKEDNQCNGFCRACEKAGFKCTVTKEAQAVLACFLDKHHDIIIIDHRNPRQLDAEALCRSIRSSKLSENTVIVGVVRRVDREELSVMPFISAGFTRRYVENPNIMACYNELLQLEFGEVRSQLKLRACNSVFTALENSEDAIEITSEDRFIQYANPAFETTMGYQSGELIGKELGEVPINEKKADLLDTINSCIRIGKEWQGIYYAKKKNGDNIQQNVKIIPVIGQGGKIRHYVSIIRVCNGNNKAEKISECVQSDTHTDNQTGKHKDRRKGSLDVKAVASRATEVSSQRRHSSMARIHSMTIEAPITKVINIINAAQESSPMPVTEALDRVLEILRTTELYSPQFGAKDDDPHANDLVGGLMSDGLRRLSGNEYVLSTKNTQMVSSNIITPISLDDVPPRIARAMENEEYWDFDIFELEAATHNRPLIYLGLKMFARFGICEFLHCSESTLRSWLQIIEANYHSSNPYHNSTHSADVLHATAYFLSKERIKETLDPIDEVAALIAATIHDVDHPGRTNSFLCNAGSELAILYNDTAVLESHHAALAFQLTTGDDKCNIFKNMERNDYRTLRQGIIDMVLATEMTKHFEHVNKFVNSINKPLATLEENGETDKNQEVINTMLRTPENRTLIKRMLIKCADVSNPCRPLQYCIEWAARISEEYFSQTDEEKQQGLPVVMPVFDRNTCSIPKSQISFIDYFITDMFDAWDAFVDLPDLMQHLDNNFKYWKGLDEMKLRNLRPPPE
# Rattus norvegicus [7] = test: Anti-idiopathic pulmonary fibrotic activity in bleomycin-induced Sprague-Dawley rat model assessed as decrease in fibronectin expression of lungs at 10 mg/kg, po treated for 28 consecutive days by Western blot analysis; format: functional, organism-based
# [8] = Acute toxicity in mouse at 1.5 g/Kg, po; conditions: in vivo, 1500 mg/kg
# [9] = AUC (0 to t) in Sprague-Dawley rat at 10 mg/kg, po; format: ADME, organism-based; design: dose 10 mg/kg; conditions: in vivo
# Rattus norvegicus [10] = test: Anti-idiopathic pulmonary fibrotic activity in bleomycin-induced Sprague-Dawley rat model assessed as prevention of structural damage of lungs at 10 mg/kg, po treated for 28 consecutive days by Hematoxylin and eosin staining based assay relative to control; format: functional, organism-based
# Rattus norvegicus [11] = test: Anti-idiopathic pulmonary fibrotic activity in bleomycin-induced Sprague-Dawley rat model assessed as reversal of peak expiratory flow at 10 mg/kg, po treated for 28 consecutive days relative to control; format: functional, organism-based
# [12] = molecular target: cGMP-specific 3',5'-cyclic phosphodiesterase (Homo sapiens, UniProt O76074); test: Inhibition of PDE5A1 (535-860) (unknown origin) expressed in Escherichia coli BL21 assessed as using […] as substrate measured for 15 mins by liquid scintillation counting analysis
# [13] = Cmax in Sprague-Dawley rat at 5 mg/kg, po; format: ADME, organism-based; design: route oral, dose 5 mg/kg; conditions: in vivo
# Rattus norvegicus [14] = test: Anti-idiopathic pulmonary fibrotic activity in bleomycin-induced Sprague-Dawley rat model assessed as inhibition of collagen deposition around trachea and cell hyperplasia at 10 mg/kg, po treated for 28 consecutive days by Hematoxylin and eosin staining based assay relative to control; format: functional
# [15] = AUC (0 to t) in Sprague-Dawley rat at 5 mg/kg, po; format: ADME, organism-based; design: dose 5 mg/kg; conditions: in vivo
# Rattus norvegicus [16] = test: Anti-inflammatory activity in bleomycin-induced idiopathic pulmonary fibrotic activity Sprague-Dawley rat model assessed as decrease in NO production in lungs at 10 mg/kg, po treated for 28 consecutive days; format: functional, organism-based
# [17] = Metabolic stability in rat liver microsomes assessed as half life; format: ADME, Microsome
# [18] = AUC (0 to infinity) in Sprague-Dawley rat at 5 mg/kg, po; format: ADME, organism-based; design: route oral, time infinity, dose 5 mg/kg; conditions: in vivo
# [19] = molecular target: cGMP-dependent 3',5'-cyclic phosphodiesterase (Homo sapiens, UniProt O00408); test: Inhibition of PDE2A (580-919) (unknown origin) expressed in Escherichia coli BL21 assessed as using [3H]-cAMP as substrate measured for 15 mins by liquid scintillation counting analysis
# Sequence of cGMP-dependent 3',5'-cyclic phosphodiesterase (O00408 whole entry): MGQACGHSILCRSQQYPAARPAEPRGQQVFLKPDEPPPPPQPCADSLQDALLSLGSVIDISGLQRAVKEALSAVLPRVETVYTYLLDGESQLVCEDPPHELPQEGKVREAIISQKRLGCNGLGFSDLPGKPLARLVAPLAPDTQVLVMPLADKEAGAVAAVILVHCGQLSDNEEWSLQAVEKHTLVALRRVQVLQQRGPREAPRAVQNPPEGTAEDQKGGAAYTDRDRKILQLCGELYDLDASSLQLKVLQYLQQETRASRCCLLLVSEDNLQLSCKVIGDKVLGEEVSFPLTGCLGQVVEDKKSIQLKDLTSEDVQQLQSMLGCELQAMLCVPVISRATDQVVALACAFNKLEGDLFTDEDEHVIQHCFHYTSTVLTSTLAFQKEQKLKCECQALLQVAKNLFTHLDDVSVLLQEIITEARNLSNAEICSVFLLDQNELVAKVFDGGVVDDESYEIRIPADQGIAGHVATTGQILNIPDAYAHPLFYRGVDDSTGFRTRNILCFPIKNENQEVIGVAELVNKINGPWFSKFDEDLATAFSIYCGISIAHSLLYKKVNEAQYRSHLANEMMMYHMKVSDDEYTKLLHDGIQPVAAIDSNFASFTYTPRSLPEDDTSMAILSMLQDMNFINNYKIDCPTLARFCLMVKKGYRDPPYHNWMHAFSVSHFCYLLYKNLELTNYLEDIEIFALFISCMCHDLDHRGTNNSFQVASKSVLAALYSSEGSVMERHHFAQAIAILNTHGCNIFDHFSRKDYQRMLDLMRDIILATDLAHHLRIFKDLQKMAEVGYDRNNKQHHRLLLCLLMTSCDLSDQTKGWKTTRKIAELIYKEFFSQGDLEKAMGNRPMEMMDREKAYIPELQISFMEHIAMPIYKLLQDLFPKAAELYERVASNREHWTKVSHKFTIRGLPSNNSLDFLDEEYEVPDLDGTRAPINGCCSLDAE
# Rattus norvegicus [20] = test: Anti-idiopathic pulmonary fibrotic activity in bleomycin-induced Sprague-Dawley rat model assessed as reversal of respiratory rate at 10 mg/kg, po treated for 28 consecutive days relative to control; format: functional, organism-based
# [21] = AUC (0 to infinity) in Sprague-Dawley rat at 10 mg/kg, po; format: ADME, organism-based; design: route oral, time infinity, dose 10 mg/kg; conditions: in vivo
# Cytochrome P450 2D6 = Cytochrome P450 2D6 (Homo sapiens, UniProt P10635); test: Inhibition of human hepatic CYP2D6; format: ADME, tissue-based, Liver
# Sequence of Cytochrome P450 2D6 (P10635 whole entry): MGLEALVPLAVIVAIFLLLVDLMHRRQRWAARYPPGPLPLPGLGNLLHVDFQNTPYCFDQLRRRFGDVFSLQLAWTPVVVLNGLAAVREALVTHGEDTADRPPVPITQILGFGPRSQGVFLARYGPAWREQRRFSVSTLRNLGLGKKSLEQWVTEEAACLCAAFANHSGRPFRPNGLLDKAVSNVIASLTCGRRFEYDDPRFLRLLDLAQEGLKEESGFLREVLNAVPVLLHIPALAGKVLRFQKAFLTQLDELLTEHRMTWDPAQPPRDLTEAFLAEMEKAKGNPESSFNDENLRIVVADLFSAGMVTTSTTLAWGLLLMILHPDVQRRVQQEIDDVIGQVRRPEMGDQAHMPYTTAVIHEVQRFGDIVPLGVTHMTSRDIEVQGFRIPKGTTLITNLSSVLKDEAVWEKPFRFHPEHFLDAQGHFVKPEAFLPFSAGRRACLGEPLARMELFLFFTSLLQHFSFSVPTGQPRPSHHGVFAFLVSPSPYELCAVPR
# [22] = molecular target: High affinity 3',5'-cyclic-AMP phosphodiesterase 7A (Homo sapiens, UniProt Q13946); test: Inhibition of PDE7A1 (130-482) (unknown origin) expressed in Escherichia coli BL21 assessed as using [3H]-cAMP as substrate measured for 15 mins by liquid scintillation counting analysis
# Sequence of High affinity 3',5'-cyclic-AMP phosphodiesterase 7A (Q13946 whole entry): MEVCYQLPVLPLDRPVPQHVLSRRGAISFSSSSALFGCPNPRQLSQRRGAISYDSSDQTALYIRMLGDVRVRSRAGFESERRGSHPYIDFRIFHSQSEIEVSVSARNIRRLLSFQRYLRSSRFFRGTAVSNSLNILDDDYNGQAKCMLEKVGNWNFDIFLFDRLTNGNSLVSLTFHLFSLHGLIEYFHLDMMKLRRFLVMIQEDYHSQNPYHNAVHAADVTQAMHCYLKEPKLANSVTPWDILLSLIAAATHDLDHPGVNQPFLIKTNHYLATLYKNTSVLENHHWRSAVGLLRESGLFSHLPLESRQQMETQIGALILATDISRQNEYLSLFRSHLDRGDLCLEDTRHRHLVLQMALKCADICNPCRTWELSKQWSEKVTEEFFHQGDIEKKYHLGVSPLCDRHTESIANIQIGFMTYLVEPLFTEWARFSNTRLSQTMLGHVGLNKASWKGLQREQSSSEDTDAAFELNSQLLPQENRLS
structure (smiles),measurement,setting,value
COc1c(OCc2ccc(F)cc2)cc2oc3cc4c(c(OC/C=C/C(=O)O)c3c(=O)c2c1CC=C(C)C)C=CC(C)(C)O4,IC50,[1],440 nM
same,Activity,[2],Non-Toxic
same,IC50,Cytochrome P450 1A2,> 25000 nM
same,Activity,Rattus norvegicus [3],Active
same,IC50,Cytochrome P450 2B6,> 25000 nM
same,IC50,[4],> 10000 nM
same,Activity,Rattus norvegicus [5],Active
same,IC50,[6],710 nM
same,Activity,Rattus norvegicus [7],Active
same,Activity,[8],Non-Toxic
same,AUC(0-t),[9],2090 ng·h/mL
same,Activity,Rattus norvegicus [10],Active
same,Activity,Rattus norvegicus [11],Active
same,IC50,[12],93 nM
same,Cmax,[13],3850 ng/mL
same,inhibition in vivo at 10 mg/kg,Rattus norvegicus [14],100%
same,AUC(0-t),[15],8420 ng·h/mL
same,Activity,Rattus norvegicus [16],Active
same,half-life,[17],12.2 h
same,AUC(0-inf),[18],8460 ng·h/mL
same,IC50,[19],940 nM
same,Activity,Rattus norvegicus [20],Active
same,AUC(0-inf),[21],2110 ng·h/mL
same,IC50,Cytochrome P450 2D6,> 25000 nM
same,IC50,[22],298 nM
